Data as given in patent US8846768B2, “Use of compounds isolated from Euphorbia neriifolia for treating cancer and/or thrombocytopenia” (Mackay Memorial Hospital, priority 2012, dated 2014).

What was measured:
[1] = tested on: human esophageal squamous 81T/VGH xenograft tumor; experiment: Tumor size in animals grafted with 81T/VGH cancer cells; format: in vivo, Athymic BALB/c-nu nude mice; conditions: FIG. 1
Protocol: For inoculated tumor model, 1×10^5 81T/VGH cells were injected subcutaneously to lab animals to generate s.c. tumors (5×10^5 cells per injection) on day 1. The needle hole was sealed with an electric coagulator (Aaron, Petersburg, Fla., USA) immediately after the withdrawal of the needle to avoid leakage of the injected substance. The incision was subsequently sutured.
Results are depicted in FIGS. 1 to 3, respectively.

[2] = tested on: human esophageal squamous 81T/VGH cells; experiment: MTT cell viability, growth inhibition on esophageal squamous cells; format: cell-based; conditions: for Inhibition (%): 81T/VGH cells; for ex vivo growth of esophageal cancerous cells inhibited: time not stated
Protocol: (§1) Cell lines used in the present disclosure include human chronic is myelogenous leukemia (CML) cell line K562, erythroleukemia HEL cells, human pancreatic carcinoma epithelial-like cell line PANC-1, human esophageal squamous cell carcinoma line 81T/VGH, human esophageal adenocarcinoma line BE-3 and human esophageal adenocarcinoma cell line SKGT4. Each cell lines were cultured and maintained in Dulbecco's modified Eagle media (DMEM) supplemented with 10% fetal calf serum, 100 IU/ml penicillin, 100 μg/ml streptomycin, and 2 mM glutamine in 5% CO2 at 37° C.
(§2) The absorbance of the solution at 570 nm was measured by spectrophotometer.
Effects of the compounds of formula (I) of this disclosure, particularly, EN 22, EN 24, and EN 25, on 81T/VGH cells were assessed by cell viability analysis in accordance with procedures described above.

[3] = tested on: human chronic myelogenous leukemia (CML) K562 cells; experiment: MTT cell viability, growth inhibition on chronic myelogenous leukemia cells; format: cell-based; conditions: for Inhibition (%): 10 μM, K562 cells; for ex vivo growth of CML cells suppressed: about 10 μM, time not stated
Protocol: as §1, §2
Effects of the compounds of formula (I) or (II) of this disclosure, particularly, EN 22, EN 26, and EN 28, on K562 cells were assessed by cell viability analysis in accordance with procedures described above.

[4] = Body weight of tumor-bearing treated animals; conditions: EN 22 alone, FIG. 2
Protocol: (§7) Athymic BALB/c-nu nude mice (4 weeks old) were obtained from the National Laboratory Animal Center (Taipei, Taiwan) and were kept in a pathogen-free facility with ad libitum access to water and laboratory chow. A solution of 81T/VGH cells was injected into the subcutaneous tissue to establish a xenograft tumor.
Tumor sizes were measured using calipers, and tumor volume was calculated using the formula: volume=width^2×length×0.52.
(§8) Mice were inoculated with esophageal squamous tumor cells in accordance with the procedures described above. For in vivo therapy, animals were given 2 mg/Kg cisplatin intraperitoneally, in the presence or absence of 20 mg/Kg EN 22, which was given orally, for a period of at least 4 weeks. Tumor size, body weight, white blood cell count, and liver function of each animal were then measured respectively at the indicated time.

[5] = White blood cell counts, liver or kidney function of treated animals; conditions: EN 22 25 or 50 mg/Kg, FIG. 3
Protocol: as §7
After treatment, mice were sacrificed and their white blood cells (WBC) counts were measured. Tumor burdens were determined by the total volume of all the tumor nodules with diameter greater than 3 mm.
as §8

[6] = tested on: human erythroleukemia (HEL) cells; experiment: In vitro growth inhibition of HEL cells; format: cell-based
Protocol: as §1, §2

K562 cells = experiment: Megakaryocyte formation, morphology by Liu's staining, K562; format: cell-based, human; conditions: 10 μM, 9 days, FIG. 6
Protocol: (§3) Cells were transferred to a glass coverslide and covered with solution A (0.5 g of methylene blue and 1.7 g of Eosin yellow dissolved in 1,000 ml of ethanol). After 45 seconds, solution B (1.3 g of azure, 1.4 g of methylene blue, 23.38 g of Na2HPO4, 6.5 g of KH2PO4, dissolved in 1,000 ml of distilled water) was added in the proportion of 2 parts of B to 1 part of A. Mixed the solutions well by blowing the surface. The slide was left standing for 90 seconds and then washed off the staining solution rapidly by running water. The morphology of stained cells was then examined by observation under microscope.
(§4) Megarkaryocytopoiesis is a process by which bone marrow progenitor cells develop into mature megakaryocytes, which in turn produce platelets required for normal hemostasis.

HEL cells [7] = experiment: Megakaryocyte formation, morphology by Liu's staining, HEL; format: cell-based, human; conditions: 10 μM, 5 days, FIG. 7
Protocol: as §3, §4

HEL cells [8] = experiment: Cell cycle analysis by flow cytometry; format: cell-based, human; conditions: FIG. 8
Protocol: Cultured cells with or without pre-treatment of the compounds of this invention (i.e., the compound of formula (I) or (II)) were harvested from the cultured media and fixed by incuating with 75% iced cold ethanol at 4° C. for at least over night. The fixed cells were then warmed up to room temperature and treated with RNAase A for about 30 min. Precipitated cells were collected by centrifugation and re-suspended in a buffer solution containing propidium iodine (20 μg/ml) before being subject to flow cytometry analysis, where cell numbers at respective cell cycles were determined.

[9] = tested on: stat3 and phosphorylated stat3; experiment: Immunoblot of stat3 and phosphorylated stat3 in K562 cells; format: cell-based, human; conditions: compared with control, FIG. 9
Protocol: (§5) Cultured cells were lysed by use of well known lysing buffer, and total amount of proteins were determined by Bradford method. The extracted raw proteins (about 50-100 μg) were loaded to […] sodium dodecyl sulfate polyacrylamide gel, and proteins therein were separated by electrophoresis. The separated proteins were then transferred to nitrocellulose membrane and non-specific binding was removed by TBST buffer (0.8% NaCl, 0.02% KCl, 25 mM Tris-HCl/pH 8.0 and 0.1% Tween-20) containing 4% skim milk. Antibodies including p-Jak2, Jak2, p-stat3-2, stat3, p-stat5, stat5, and GAPDH (purchased from Transduction Laboratories, Lexington, Ky., USA), were respectively dissolved in TBST buffer containing 2% skim milk and incubated with the separated protein bands at 4° C. for at least over night; followed by incubation with horseradish conjugated secondary antibodies at room temperature for about 30 min, and then detected by ECL chemiluminesance detection kit (Amersham Pharmacia Biotech, US).
(§6) The induction of K562 cells or HEL cells to form megakaryocytes was further investigated by measuring the expressed level of its regulatory proteins such as, stat3 and phosphorylated stat3.

[10] = tested on: stat3 and phosphorylated stat3; experiment: Immunoblot of stat3 and phosphorylated stat3 in HEL cells; format: cell-based, human; conditions: compared with control, FIG. 9
Protocol: as §5, §6

HEL cells [11] = experiment: STAT3 RNAi assay, megakaryocytic differentiation after Stat3 knockdown; format: cell-based, human; conditions: Stat3 small interference RNA, FIG. 10
Text: The murine stat3 target sequence from positions 134 to 158 (5′-TGGCCCAATGGAATCAGCTACAGCA-3′ (SEQ ID NO: 1)) was selected for the preparation of stat3 siRNA (5′-UGGCCCAAUGGAAUCAGCUACAGCA-3′ (SEQ ID NO: 2)). Scrambled RNAs were employed as a negative control and were synthesized by PCR-derived siRNA expression cassettes according to the manufacturer's instructions and were then cloned into pSEC™ hygro plasmid (Ambion).
[…] HEL cells were transfected with the plasmids (i.e., plasmids containing the nucleic acid for the stat3 siRNA or scramble RNAs) described above with the aid of the lipofectamine 2000 (Invitrogen, Carisbad, Calif. USA). Specifically, 5 μg pSEC™ hygro plasmid contained murine stat3 siNAs and 9 μl lipofectamine 2000 were allowed to form complexes in a period of 25 min at room temperature in antibiotic-free DMEM medium. The complexes were then added to HEL cells maintained and cultured in 6-well dishes and further incubated for another 24 hrs. For the selection of cells with high expression rate of siRNA, stable clones of murine stat3 siRNA expressed cells and negative control siRNA (i.e., scrambled RNA) were selected by use of 500 μg/ml hygromycin contained medium, and the selected clones were maintained in 250 ? μg/ml hygromycin contained medium. […]

[12] = tested on: CD61 and CD235a in HEL cells; experiment: Flow cytometric analysis of CD61 and CD235a expression; format: cell-based, human; conditions: 5 μM
Text: The induction of megakaryocytic differentiation may also be confirmed by the measurement of the differentiation markers CD61 and CD235a expressed on the erythrocyte membrane during the differentiation stage.

normal bone marrow cells = experiment: Induction and proliferation of megakaryocytes from normal bone marrow cells; format: cell-based; conditions: 1.25 μM, FIG. 12

Compound | Inhibition (%) ([2]; 1 μM, 24 hrs) | Inhibition (%) ([2]; 1 μM, 48 hrs) | Inhibition (%) ([2]; 10 μM, 24 hrs) | Inhibition (%) ([2]; 10 μM, 48 hrs) | ex vivo growth of esophageal cancerous cells inhibited ([2]; about 1 μM) | ex vivo growth of esophageal cancerous cells inhibited ([2]; about 10 μM) | Inhibition (%) ([3]; 48 hrs) | Inhibition (%) ([3]; 72 hrs) | ex vivo growth of CML cells suppressed [3] | also measured
N.N.[Cl][Pt][Cl] [cisplatin, reference compound] |  |  |  |  |  |  |  |  |  | tumor size (growth of tumor) ([1]; cisplatin 2 mg/Kg intraperitoneally): capable of suppressing the growth of tumor during the entire treatment period
CC1C(O)CCC2C1(C)CCC1C2(C)CCC2(C)C3CC(C)(C)CCC3(C)CCC12C (stereo not drawn) [EN 22, 3β-Friedelinol] | 51.98% | 41.42% | 58.03% | 58.61% | about 50% | about 60% | 39.32% | 45.38% | about 45% | tumor size (growth of tumor) ([1]; EN 22 orally, 20 and 50 mg/Kg): able to suppress the growth of the tumor in a dose dependent manner; body weight loss [4]: free from the “weight lost” problem; white blood cell (WBC) counts [5]: did not affect the number of WBC
CC1C(O)CCC2C1(C)CCC1C2(C)CCC2(C)C3CC(C)(C)CCC3(C)CCC12C (stereo not drawn) [EN 25, 3α-Friedelinol] | 49.45% | 39.99% | 61.74% | 62.55% | about 50% | about 60% |  |  |  | 
CC1(C)CC[C@]2(C)CC=C3[C@]4(C)CC[C@H]5C(C)(C)[C@@H](O)CC[C@]5(C)[C@H]4CC[C@@]3(C)[C@@H]2C1 [EN 24, 3β-Taraxerol] | 49.15% | 43.47% | 63.99% | 57.10% |  |  |  |  |  | 
CC=C(C)C(=O)OC1C(C)=CC23OC2(CC(C)C3OC(C)=O)C(=O)C(C)C(OC(C)=O)C2C(C1OC)C2(C)C (centres unmarked) [EN 28, 3,12-O-Diacetyl-7-O-angeloyl-8-methoxyingol] |  |  |  |  |  |  | 44.85% |  | about 50% | in vitro growth of HEL cells inhibited ([6]; 5 μM): about 55%; in vitro growth of HEL cells inhibited ([6]; 10 μM): about 60%; in vitro growth of HEL cells inhibited ([6]; about 2.5 μM): about 40%; morphology change, formation of megakaryocytes (K562 cells): cells started to fuse and form megakaryocytes; morphology change, differentiation into megakaryocytes (HEL cells [7]): induces the differentiation of HEL cells into megakaryocytes; cell cycle analysis (HEL cells [8]): capable of inducing the generation of new population of cells; level of phosphorylated stat-3 [9]: increased; level of stat3 [9]: increased; level of phosphorylated stat-3 [10]: increased; level of stat3 [10]: increased; induction of megakaryocytic differentiation after knockdown of Stat3 (HEL cells [11]): partially reversed; effect of Stat3 knockdown on CD61 and CD235a changes ([12]; HEL cells with siStat3, FIG. 11): not antagonized; CD61 expression ([12]; HEL cells, FIG. 11): up-regulation; CD235a expression ([12]; HEL cells, FIG. 11): down-regulation; proliferation and differentiation into megakaryocytes (normal bone marrow cells): capable of inducing the proliferation and subsequently, the differentiation of the proliferated normal bone marrow cells into megakaryocytes
CC=C(C)C(=O)OC1C(OC(C)=O)C(C)=CC23OC2(CC(C)C3OC(C)=O)C(=O)C(C)C(OC(C)=O)C2C1C2(C)C (centres unmarked) [EN 26, 3,7,12-O-Triacetyl-8-O-tigioylingol] |  |  |  |  |  |  | 30.38% | 42.35% | about 40% | Inhibition (%) ([3]; 24 hrs): 12.74%
